According to patent US20250092065A1, “2-(INDAZOL-5-YL)-6-(PIPERIDIN-4-YL)-1,7-NAPHTHYRIDINE DERIVATIVES AND RELATED COMPOUNDS AS MODULATORS FOR SPLICING NUCLEIC ACIDS AND FOR THE TREATMENT OF PROLIFERATIVE DISEASES” (REMIX THERAPEUTICS INC., priority 2022, published 2025):

What was measured:
Target C [1] = assay: RT-qPCR canonical junction panel assay, Target C mRNA; type: cell-based; conditions: Table 4, read-out: Target C IC50 (decrease in CJ mRNA levels)
Method in brief: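 IC50 is the concentration giving 50% CJ decrease, from a 4-parameter logistic fit of percent response; response derived from ΔΔCt against housekeeper and DMSO over a fixed ΔCt window, with canonical exon-junction qPCR in compound-treated K562 or A673 cells.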

HTT = assay: HiBiT protein abundance assay, HTT (K562 HiBiT knock-in); type: cell-based, human; conditions: HiBiT knock-in K562 cells, 24 hours, top dose 10 μM
Method in brief: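 Tagged-protein levels were measured as HiBiT/LgBiT luminescence in lysed K562 knock-in cells exposed to serially diluted compound (up to 10 μM final) for 24 hours. A four-parameter logistic regression of control-normalized signal yielded the IC50.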

Target C [2] = assay: HiBiT protein abundance assay, Target C (K562 HiBiT knock-in); type: cell-based, human; conditions: HiBiT knock-in K562 cells, 24 hours, top dose 10 μM
Method in brief: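 K562 HiBiT knock-in cells (10000/well) were treated 24 h at 37° C with a 10-point 3-fold dilution series (top 10 μM final, ≤0.25% DMSO). HiBiT luminescence was read after lytic LgBiT detection. Percent response used unmodified K562 and DMSO-treated knock-in controls, and IC50 came from a four-parameter fit at 50% of untreated.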

K562 cells = assay: Cell Titer Glo 2.0 cell viability (toxicity) assay, K562; conditions: 500 cells/well, 72 hours

Row | IC50 (Target C [1]) | IC50 (HTT) | IC50 (Target C [2]) | SMILES | Effect of Exemplary Compounds on Cell Viability, K562 (K562 cells)
1 | < 100 nM | < 100 nM | < 100 nM | Cn1cc2cc(-c3ccc4nc(N5CCC(N)C5)ccc4n3)c(O)c(F)c2n1 (stereo in doubt) [Compound 363, 5-{6-[(3R)-3-aminopyrrolidin-1-yl]-1,5-naphthyridin-2-yl}-7-fluoro-2-methylindazol-6-ol] | A (A represents <100 nM)
2 | < 100 nM | < 100 nM | < 100 nM | Cc1nc2c(F)c(O)c(-c3ccc4nc(N5CC[C@@H](N[C@H]6C[C@@H](F)C6)C5)ccc4n3)cc2o1 (stereo in doubt) [Compound 375] | A (A represents <100 nM)
3 | 100 to 1000 nM | < 100 nM | < 100 nM | Cc1nc2c(C)c(O)c(-c3ccc4nc(N5CC[C@@H](N[C@H]6C[C@@H](F)C6)C5)ccc4n3)cc2o1 (stereo in doubt) [Compound 376] | B (B represents 100-1000 nM)
4 | < 100 nM | < 100 nM | < 100 nM | Cc1nc2c(C)c(O)c(-c3ccc4nc(N5CC[C@H](N[C@H]6C[C@@H](F)C6)C5)ccc4n3)cc2o1 (stereo in doubt) [Compound 377] | B (B represents 100-1000 nM)
5 | 1000 to 10000 nM | 100 to 1000 nM | 100 to 1000 nM | Cc1nc2cc(O)c(-c3ccc4nc(N5CC[C@@H](N[C@H]6C[C@@H](F)C6)C5)ccc4n3)cc2o1 (stereo in doubt) [Compound 395] | B (B represents 100-1000 nM)
6 | 100 to 1000 nM | < 100 nM | < 100 nM | Cc1nc2cc(O)c(-c3ccc4nc(N5CC[C@H](N[C@H]6C[C@@H](F)C6)C5)ccc4n3)cc2o1 (stereo in doubt) [Compound 396] | B (B represents 100-1000 nM)
7 | < 100 nM | < 100 nM | < 100 nM | Cn1cc2cc(-c3ccc4nc(N5CC[C@@H](NC6(CF)CC6)C5)ccc4n3)c(O)cc2n1 [Compound 354, 5-{6-[(3R)-3-{[1-(fluoromethyl)cyclopropyl]amino}pyrrolidin-1-yl]-1,5-naphthyridin-2-yl}-2-methylindazol-6-ol] | B (B represents 100-1000 nM)
8 | 100 to 1000 nM | < 100 nM | < 100 nM | Cn1cc2cc(-c3ccc4nc(N5CC[C@H](NC6(CF)CC6)C5)ccc4n3)c(O)cc2n1 [Compound 355, 5-{6-[(3S)-3-{[1-(fluoromethyl)cyclopropyl]amino}pyrrolidin-1-yl]-1,5-naphthyridin-2-yl}-2-methylindazol-6-ol] | B (B represents 100-1000 nM)
9 | < 100 nM | < 100 nM | < 100 nM | Cc1c(O)c(-c2ccc3nc(N4CCC(NC5(CF)CC5)C4)ccc3n2)cc2cn(C)nc12 (stereo not shown) [Compound 360, 5-[6-(3-{[1-(fluoromethyl)cyclopropyl]amino}pyrrolidin-1-yl)-1,5-naphthyridin-2-yl]-2,7-dimethylindazol-6-ol] | B (B represents 100-1000 nM)
10 | > 10000 nM | > 10000 nM | 1000 to 10000 nM | Cc1c(O)c(-c2cc(C(C)O)c3nc(N4CCNCC4)ccc3n2)cc2cn(C)nc12 (stereo not shown) [Compound 364, 5-[4-(1-hydroxyethyl)-6-(piperazin-1-yl)-1,5-naphthyridin-2-yl]-2,7-dimethylindazol-6-ol] | B (B represents 100-1000 nM)
11 | 1000 to 10000 nM | 100 to 1000 nM | 100 to 1000 nM | Cc1c(O)c(-c2ncc3nc(C4CCNCC4)ccc3n2)cc2cn(C)nc12 [Compound 370, 2,7-dimethyl-5-[6-(piperidin-4-yl)pyrido[3,2-d]pyrimidin-2-yl]indazol-6-ol] | C (C represents 1000-9999 nM)
12 | < 100 nM | < 100 nM | < 100 nM | Cc1nc2c(F)c(O)c(-c3ccc4nc(N5CC[C@H](N[C@H]6C[C@@H](F)C6)C5)ccc4n3)cc2o1 [Compound 374, 4-fluoro-2-methyl-6-[6-(3-{[(1r,3r)-3-fluorocyclobutyl]amino}pyrrolidin-1-yl)-1,5-naphthyridin-2-yl]-1,3-benzoxazol-5-ol] | A (A represents <100 nM)
13 | 1000 to 10000 nM | 100 to 1000 nM | 1000 to 10000 nM | CNC1CCN(c2ccc3nc(-c4cc(C#N)c5nc(C)cn5c4)ncc3n2)C1 (stereo not shown) [Compound 382, 2-methyl-6-{6-[3-(methylamino)pyrrolidin-1-yl]pyrido[3,2-d]pyrimidin-2-yl}imidazo[1,2-a]pyridine-8-carbonitrile] | A (A represents <100 nM)
14 | > 10000 nM | 1000 to 10000 nM | 1000 to 10000 nM | Cn1cc2cc(-c3ccc4nc(N5CC[C@H](NC6CC(F)(F)C6)C5)ccc4n3)c(O)cc2n1 [Compound 384] | D (D represents greater than 10 μM in K562 cells)
15 | 100 to 1000 nM | < 100 nM | 100 to 1000 nM | Cn1cc2cc(-c3ccc4nc(N5CC[C@@H](NC6CC(F)(F)C6)C5)ccc4n3)c(O)cc2n1 [Compound 385] | D (D represents greater than 10 μM in K562 cells)
16 | < 100 nM | < 100 nM | < 100 nM | Cn1cc2cc(-c3ccc4nc(N5CCC(NCC6CC6)C5)ccc4n3)c(O)c(F)c2n1 (stereo not shown) [Compound 387, 5-(6-{3-[(cyclopropylmethyl)amino]pyrrolidin-1-yl}-1,5-naphthyridin-2-yl)-7-fluoro-2-methylindazol-6-ol] | A (A represents <100 nM)
17 | 100 to 1000 nM | < 100 nM | < 100 nM | Cc1nc2cc(O)c(-c3ccc4nc(N5CCC(NCC6CC6)C5)ccc4n3)cc2o1 (stereo not shown) [Compound 389, 6-(6-{3-[(cyclopropylmethyl)amino]pyrrolidin-1-yl}-1,5-naphthyridin-2-yl)-2-methyl-1,3-benzoxazol-5-ol] | B (B represents 100-1000 nM)
18 | < 100 nM | < 100 nM | < 100 nM | Cc1nc2c(C)c(O)c(-c3ccc4nc(N5CCC(NCC6CC6)C5)ccc4n3)cc2o1 (stereo not shown) [Compound 390, 6-(6-{3-[(cyclopropylmethyl)amino]pyrrolidin-1-yl}-1,5-naphthyridin-2-yl)-2,4-dimethyl-1,3-benzoxazol-5-ol] | A (A represents <100 nM)
19 | 100 to 1000 nM | 100 to 1000 nM | 100 to 1000 nM | CNC1CCN(c2ccc3nc(-c4cc(F)c5nc(C)cn5c4)ncc3n2)C1 (stereo not shown) [Compound 393, 1-(2-{8-fluoro-2-methylimidazo[1,2-a]pyridin-6-yl}pyrido[3,2-d]pyrimidin-6-yl)-N-methylpyrrolidin-3-amine] | B (B represents 100-1000 nM)
20 | > 10000 nM | 1000 to 10000 nM | 1000 to 10000 nM | Cc1c(O)c(-c2ncc3nc(C4CCNC4)ccc3n2)cc2cn(C)nc12 (stereo not shown) [Compound 397, 2,7-dimethyl-5-[6-(pyrrolidin-3-yl)pyrido[3,2-d]pyrimidin-2-yl]indazol-6-ol; trifluoroacetic acid] | B (B represents 100-1000 nM)
21 | > 10000 nM | > 10000 nM | > 10000 nM | Cc1c(O)c(-c2ncc3nc([C@H]4CCNC4)ccc3n2)cc2cn(C)nc12 [Compound 399] | C (C represents 1000-9999 nM)
22 | 1000 to 10000 nM | 100 to 1000 nM | 100 to 1000 nM | Cn1cc2cc(-c3ncc4nc(C5CCNCC5)ccc4n3)c(O)c(C#N)c2n1 [Compound 403, 6-hydroxy-2-methyl-5-[6-(piperidin-4-yl)pyrido[3,2-d]pyrimidin-2-yl]indazole-7-carbonitrile; trifluoroacetic acid] | B (B represents 100-1000 nM)
23 | < 100 nM | < 100 nM | < 100 nM | Cn1cc2cc(-c3ccc4nc(N5CCC(NC(C)(C)C)C5)ncc4n3)c(O)cc2n1 (stereo not shown) [Compound 404, 5-{2-[3-(tert-butylamino)pyrrolidin-1-yl]pyrido[3,2-d]pyrimidin-6-yl}-2-methylindazol-6-ol] | B (B represents 100-1000 nM)
24 | 1000 to 10000 nM | 1000 to 10000 nM | 1000 to 10000 nM | COc1cc(-c2ccc3nc(N4CCC(NC(C)(C)C)C4)ncc3n2)cnn1 (stereo not shown) [Compound 405, N-tert-butyl-1-[6-(6-methoxypyridazin-4-yl)pyrido[3,2-d]pyrimidin-2-yl]pyrrolidin-3-amine] | C (C represents 1000-9999 nM)

Row | SMILES | IC50 (Target C [1]) | IC50 (HTT) | IC50 (Target C [2]) | Effect of Exemplary Compounds on Cell Viability, K562 (K562 cells)
25 | CC(C)NC1CCN(c2ccc3nc(-c4cc5cn(C)nc5c(F)c4O)ccc3n2)C1 (stereo not shown) [Compound 388, 7-fluoro-5-{6-[3-(isopropylamino)pyrrolidin-1-yl]-1,5-naphthyridin-2-yl}-2-methylindazol-6-ol] | < 100 nM | < 100 nM | < 100 nM | A (A represents <100 nM)
